Experiment: mn = molality of the nth substance listed, in mol/kg
Settings: 99.6 kPa, Liquid, Vibrating tube method

NC(N)=O [urea] + NC=O
mass density [kg/m3]
Settings | 288.15 K | 298.15 K | 308.15 K | 318.15 K | 328.15 K
m1 = 0.1057 | 1138.95 | 1130.54 | 1122.1 | 1113.61 | 1105.1
m1 = 0.1893 | 1139.77 | 1131.36 | 1122.91 | 1114.44 | 1105.94
m1 = 0.3308 | 1141.12 | 1132.72 | 1124.29 | 1115.82 | 1107.33
m1 = 0.4766 | 1142.51 | 1134.11 | 1125.69 | 1117.23 | 1108.75
m1 = 0.675 | 1144.34 | 1135.96 | 1127.55 | 1119.11 | 1110.64
m1 = 0.7518 | 1145.05 | 1136.67 | 1128.26 | 1119.83 | 1111.37
m1 = 0.8498 | 1145.93 | 1137.56 | 1129.16 | 1120.74 | 1112.28
m1 = 1.07 | 1147.9 | 1139.54 | 1131.15 | 1122.75 | 1114.3
m1 = 1.292 | 1149.82 | 1141.49 | 1133.11 | 1124.72 | 1116.29
m1 = 1.33 | 1150.15 | 1141.82 | 1133.44 | 1125.05 | 1116.63
m1 = 1.424 | 1150.95 | 1142.62 | 1134.26 | 1125.87 | 1117.45
m1 = 1.555 | 1152.06 | 1143.73 | 1135.38 | 1127 | 1118.59
m1 = 1.681 | 1153.09 | 1144.79 | 1136.43 | 1128.06 | 1119.66
m1 = 1.718 | 1153.4 | 1145.09 | 1136.75 | 1128.38 | 1119.98
m1 = 1.824 | 1154.26 | 1145.96 | 1137.63 | 1129.27 | 1120.87
m1 = 1.999 | 1155.67 | 1147.39 | 1139.06 | 1130.7 | 1122.32

NC(N)=O [urea] + O
mass density [kg/m3]
Settings | 288.15 K | 298.15 K | 308.15 K | 318.15 K | 328.15 K
m1 = 0.09134 | 1000.61 | 998.5 | 995.42 | 991.58 | 987.02
m1 = 0.2167 | 1002.67 | 1000.46 | 997.32 | 993.41 | 988.81
m1 = 0.3509 | 1004.84 | 1002.52 | 999.32 | 995.36 | 990.71
m1 = 0.5181 | 1007.5 | 1005.07 | 1001.77 | 997.75 | 993.05
m1 = 0.6698 | 1009.88 | 1007.34 | 1003.96 | 999.88 | 995.14
m1 = 0.8161 | 1012.14 | 1009.5 | 1006.05 | 1001.91 | 997.13
m1 = 0.9745 | 1014.54 | 1011.8 | 1008.27 | 1004.08 | 999.25
m1 = 1.195 | 1017.83 | 1014.96 | 1011.32 | 1007.05 | 1002.16
m1 = 1.33 | 1019.8 | 1016.85 | 1013.15 | 1008.83 | 1003.92
m1 = 1.489 | 1022.09 | 1019.05 | 1015.27 | 1010.91 | 1005.95
m1 = 1.6 | 1023.67 | 1020.57 | 1016.75 | 1012.35 | 1007.36
m1 = 1.707 | 1025.18 | 1022.02 | 1018.15 | 1013.72 | 1008.7
m1 = 1.898 | 1027.81 | 1024.56 | 1020.6 | 1016.12 | 1011.06
m1 = 2.034 | 1029.63 | 1026.33 | 1022.32 | 1017.8 | 1012.71

From the NIST ThermoML archive (doi:10.1021/acs.jced.9b00794)
